This is an account of results in ChEMBL document CHEMBL1132713, “Emerging molecular approaches to pain therapy” (J Med Chem, 1999).

In test [1] the target is Proteasome. In words: Inhibitory activity against 26S proteasome degradation of IkB. Type of test: subcellular.
Test [2] addresses Delta-type opioid receptor (Homo sapiens, UniProt P41143). In words: Opioid receptor delta 1 agonist activity was determined. It counts as functional.

Delta-type opioid receptor, sequence (P41143 whole entry): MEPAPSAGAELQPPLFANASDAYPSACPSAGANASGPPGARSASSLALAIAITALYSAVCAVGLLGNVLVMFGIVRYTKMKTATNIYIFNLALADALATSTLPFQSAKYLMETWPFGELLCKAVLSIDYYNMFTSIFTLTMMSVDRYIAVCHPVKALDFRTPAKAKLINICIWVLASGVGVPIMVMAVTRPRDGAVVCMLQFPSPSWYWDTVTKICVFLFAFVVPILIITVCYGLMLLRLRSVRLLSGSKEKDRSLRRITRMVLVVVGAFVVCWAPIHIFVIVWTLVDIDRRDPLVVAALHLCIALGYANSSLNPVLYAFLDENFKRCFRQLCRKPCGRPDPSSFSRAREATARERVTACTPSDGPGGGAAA

Take `CC(C)C[C@H](NC(=O)[C@@H](Cc1ccccc1)NC(=O)c1ccccc1)B(O)O`: the affinity in test [1], expressed as Ki, was 0.6 nM. For `COc1ccc2c3c1OC1C4NC(C(=O)OCC(C)C)=C(C)C4CC4C(C2)N(C)CCC341` (configuration not stated), in test [2], the inhibitory constant (Ki) turned out to be 4.8 nM.
